Series [1] in a line: Selectivity index, ratio of IC50 for human MRC5 cells to IC50 for […]. The format is toxicity, cell-based. As to conditions: read-out: Ratio IC50.
Series [2] is described as follows: Selectivity index, ratio of IC50 for human MRC5 cells to IC50 for human HuCCa1 cells. The format is functional.
Series [3] concerns Plasmodium falciparum. The series can be described thus: microbe, parasite or virus in culture. The conditions noted are these: 3D7.
Description: Antiplasmodial activity against chloroquine-sensitive Plasmodium falciparum 3D7
For another series, the system named is A549. The experiment in a line: Cytotoxicity against human A549 cells by MTT assay. The format is functional, cell-based. (In general: Formazan colour is commonly taken as a measure of viable cells.)
In series [4] the test system is Plasmodium falciparum. The series can be described thus: microbe, parasite or virus in culture. The conditions noted are these: K1.
Description: Antiplasmodial activity against chloroquine-resistant Plasmodium falciparum K1
Series [5] can be described thus: Cytotoxicity against human MOLT3 cells by XTT assay. The format is functional, cell-based. The conditions noted are these: MOLT-3.
Series [6] is described as follows: Selectivity index, ratio of IC50 for human MRC5 cells to IC50 for chloroquine-resistant Plasmodium falciparum K1. The format is toxicity, cell-based. The conditions noted are these: read-out: Ratio IC50.
Series [7] relates to Plasmodium falciparum. The experiment in a line: microbe, parasite or virus in culture. The conditions noted are these: SKF58.
A further series has as its system HepG2. The series can be described thus: Cytotoxicity against human HepG2 cells by MTT assay. The format is functional, cell-based.
Series [8] deals with Plasmodium falciparum. The series can be described thus: microbe, parasite or virus in culture. The conditions noted are these: SRIV35.
Series [9] can be described thus: Cytotoxicity against human HuCCa1 cells by MTT assay. The format is functional, cell-based. As to conditions: HuCC-A1.
Series [10] is described as follows: Selectivity index, ratio of IC50 for human MRC5 cells to IC50 for chloroquine/mefloquine-resistant Plasmodium falciparum SRIV35. The format is toxicity, cell-based. As to conditions: read-out: Ratio IC50.
The nature of series [11]: Selectivity index, ratio of IC50 for human MRC5 cells to IC50 for chloroquine/mefloquine-resistant Plasmodium falciparum SKF58. The format is toxicity, cell-based. As to conditions: read-out: Ratio IC50.
The subject of series [12] is MRC5. The experiment in a line: Cytotoxicity against human MRC5 cells by MTT assay. The format is cell-based.
Series [13] has as its system MRC5. The series can be described thus: Cytotoxicity against human MRC5 cells at 144667 nM by MTT assay relative to control. The conditions noted are these: mrc5, 144.667 µM. The format is cell-based.
In series [14] the test system is MRC5. The series can be described thus: Cytotoxicity against human MRC5 cells at 72014 nM by MTT assay relative to control. The format is cell-based. As to conditions: mrc5, 72.014 µM.
The subject of series [15] is MRC5. The experiment in a line: Cytotoxicity against human MRC5 cells at 131866 nM by MTT assay relative to control. The format is cell-based. As to conditions: mrc5, 131.866 µM.
For series [16], the system named is MRC5. The series can be described thus: Cytotoxicity against human MRC5 cells at 137509 nM by MTT assay relative to control. The format is cell-based. As to conditions: mrc5, 137.509 µM.
Series [17] concerns MRC5. The experiment in a line: Cytotoxicity against human MRC5 cells at […] uM by MTT assay relative to control. The format is cell-based. The conditions noted are these: mrc5, 91.99 µM.

This note sets out measurements from ChEMBL document CHEMBL3414562, “Synthesis of isocryptolepine analogues and their structure-activity relationship studies as antiplasmodial and antiproliferative agents” (Eur J Med Chem, 2015).

Structures are written as SMILES.

Take `Cn1cc2c3cc(Br)ccc3nc-2c2cc(Cl)ccc21`: the selectivity ratio is over 796 in series [1], over 623 in series [6], over 845 in series [10] and over 893 in series [11]. Also, the “Ratio IC50” value in series [2] is over 4.7. Besides, the IC50 – broadly, the point on the concentration scale where inhibition reaches its midpoint – with Plasmodium falciparum [3] turned out to be 0.182 µM; with A549, 7.03 µM; with Plasmodium falciparum [4], 0.232 µM; in [5] it was 0.75 µM; in the series with Plasmodium falciparum [7] it was 0.162 µM; with HepG2, 4.83 µM. The figures for the IC50 (in the series on Plasmodium falciparum [8]; in series [9]; with MRC5 [12]) were 0.171 µM, 30.8 µM and over 145 µM, respectively. The same compound yielded an Activity in the series on MRC5 [13] of 40.45%.

As for `Cn1cc2c3cc(Br)ccc3nc-2c2ccc(F)c(F)c21`, the selectivity ratio in series [1] was over 248; in [6], over 53.2; in series [11], over 7.3. Also, the “Ratio IC50” value in series [2] was over 1.68. The IC50 in the series with Plasmodium falciparum [3] is 0.29 µM; in the series with A549, 25 µM; in the series on Plasmodium falciparum [4], 1.35 µM; in series [5] it was 17.4 µM; with Plasmodium falciparum [7], 9.87 µM; in the series with Plasmodium falciparum [8], over 2 µM. Further, the IC50 in [9] is 42.7 µM; in the series with MRC5 [12], over 72 µM. In the series with MRC5 [14], this compound came in with an Activity of 32.6%.

Take `Cn1cc2c3cc(Br)ccc3nc-2c2cc(C(F)(F)F)ccc21`: the selectivity ratio in series [1] was over 228; in series [6], over 96.4; in [10], over 142; in series [11], over 108. In addition, the “Ratio IC50” value in series [2] was over 17.72. For the same compound, the IC50 in the series on Plasmodium falciparum [3] is 0.579 µM; with A549, 105 µM; in the series on Plasmodium falciparum [4] it was 1.37 µM; in series [5], 35 µM; in the series on Plasmodium falciparum [7] it was 1.22 µM; in the series on HepG2 it was 75.6 µM. The figures for the 50% inhibitory concentration (IC50) (with Plasmodium falciparum [8]; in [9]; in the series with MRC5 [12]) were 0.929 µM, 7.44 µM and over 132 µM, respectively. The Activity with MRC5 [15] is reported as 35.85%.

With `Cn1cc2c3cc(Br)ccc3nc-2c2cc(OC(F)(F)F)ccc21`, the selectivity ratio was determined as 1500 in series [1], 1280 in series [6], 804 in [10] and 799 in [11]. For the same compound, in [2], the “Ratio IC50” value is listed as 12.36. For the same compound, the 50% inhibitory concentration (IC50) in the series on Plasmodium falciparum [3] was 0.0577 µM; in the series on A549, 8.46 µM; with Plasmodium falciparum [4], 0.0679 µM; in series [5], 2.6 µM; in the series on Plasmodium falciparum [7] it was 0.108 µM; in the series on HepG2, 8.2 µM. Besides, the results for the concentration for half-maximal inhibition (IC50) (with Plasmodium falciparum [8]; in series [9]; with MRC5 [12]) were 0.108 µM, 7.01 µM and 86.6 µM, respectively.

On to `Cn1cc2c3cc(Br)ccc3nc-2c2cc(Cl)cc(F)c21`, for which the selectivity ratio was over 181 in [1], over 101 in series [6], over 98.2 in series [10] and over 97.9 in series [11]. In addition, the “Ratio IC50” value in series [2] is on record as over 12.07. Also, the concentration for half-maximal inhibition (IC50) is 0.758 µM in the series with Plasmodium falciparum [3]; 1.36 µM in the series with Plasmodium falciparum [4]; 55.7 µM in series [5]; 1.4 µM with Plasmodium falciparum [7]; 8.76 µM with HepG2; 1.4 µM in the series on Plasmodium falciparum [8]. Also, the IC50 is 11.4 µM in [9] and over 138 µM with MRC5 [12]. Further, the Activity in the series with MRC5 [16] is given as 34%.

Regarding `COc1cccc2c1C(=O)c1c(O)c3c(c(O)c1C2=O)C[C@@](O)(C(=O)CO)C[C@@H]3O[C@H]1C[C@H](N)[C@H](O)[C@H](C)O1` [DOXORUBICIN], the half-inhibitory concentration (IC50) was 0.4 µM in the series with HepG2, 2.39 µM in series [9] and over 92 µM in the series on MRC5 [12]. The Activity in the series with MRC5 [17] is reported as 37.13%.
